# Measurements reported in ChEMBL document CHEMBL5291721, “A preclinical secondary pharmacology resource illuminates target-adverse drug reaction associations of marketed drugs” (Nat Commun, 2023).
# Columns and labels:
# [1] = target: 5-hydroxytryptamine receptor 2B (Homo sapiens, UniProt P41595); assay type: functional, cell-based
# Melanocortin receptor 3 = Melanocortin receptor 3 (Homo sapiens, UniProt P41968)
# [2] = target: T1, Muscarinic acetylcholine receptor M2 (Homo sapiens, UniProt P08172); assay type: functional, cell-based
# T1 sequence (P08172 whole entry): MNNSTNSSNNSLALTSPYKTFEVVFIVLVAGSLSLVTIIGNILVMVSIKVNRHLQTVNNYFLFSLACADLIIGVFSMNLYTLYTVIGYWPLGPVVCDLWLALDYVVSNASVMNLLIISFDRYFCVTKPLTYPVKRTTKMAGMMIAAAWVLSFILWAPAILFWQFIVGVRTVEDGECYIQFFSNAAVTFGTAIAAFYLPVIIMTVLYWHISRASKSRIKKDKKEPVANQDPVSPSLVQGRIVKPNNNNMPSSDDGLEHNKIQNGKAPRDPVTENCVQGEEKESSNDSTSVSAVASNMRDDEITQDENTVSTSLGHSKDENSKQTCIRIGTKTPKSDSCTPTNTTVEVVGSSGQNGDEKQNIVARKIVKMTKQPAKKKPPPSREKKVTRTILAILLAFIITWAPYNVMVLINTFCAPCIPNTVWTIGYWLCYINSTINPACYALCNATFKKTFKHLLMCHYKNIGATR
# Endothelin-1 receptor = target: T2, Endothelin-1 receptor (Homo sapiens, UniProt P25101)
# T2 sequence (P25101 whole entry): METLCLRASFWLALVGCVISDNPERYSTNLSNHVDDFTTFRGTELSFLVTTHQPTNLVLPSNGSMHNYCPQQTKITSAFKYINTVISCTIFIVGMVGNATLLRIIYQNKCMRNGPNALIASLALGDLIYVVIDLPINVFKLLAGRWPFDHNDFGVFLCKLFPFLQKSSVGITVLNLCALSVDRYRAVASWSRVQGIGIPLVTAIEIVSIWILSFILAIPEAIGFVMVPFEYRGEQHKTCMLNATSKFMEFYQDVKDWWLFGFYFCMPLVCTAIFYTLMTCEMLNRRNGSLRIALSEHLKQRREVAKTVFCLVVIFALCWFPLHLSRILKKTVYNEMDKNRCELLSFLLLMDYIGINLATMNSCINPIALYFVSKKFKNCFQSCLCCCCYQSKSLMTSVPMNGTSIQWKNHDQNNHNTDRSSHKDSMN
# [3] = target: T3, Type-1 angiotensin II receptor (Homo sapiens, UniProt P30556)
# T3 sequence (P30556 whole entry): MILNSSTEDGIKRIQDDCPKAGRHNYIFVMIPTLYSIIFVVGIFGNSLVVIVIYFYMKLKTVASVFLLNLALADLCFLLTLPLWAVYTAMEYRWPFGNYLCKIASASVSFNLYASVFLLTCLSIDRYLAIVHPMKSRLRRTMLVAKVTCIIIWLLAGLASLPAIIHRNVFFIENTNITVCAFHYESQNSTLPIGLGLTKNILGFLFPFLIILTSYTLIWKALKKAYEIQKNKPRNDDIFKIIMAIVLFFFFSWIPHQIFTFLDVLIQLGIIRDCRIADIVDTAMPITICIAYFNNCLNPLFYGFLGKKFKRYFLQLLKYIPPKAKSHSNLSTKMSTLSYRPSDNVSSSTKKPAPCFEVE
# [4] = target: Delta-type opioid receptor (Homo sapiens, UniProt P41143)
# [5] = target: T4, Alpha-2A adrenergic receptor (Homo sapiens, UniProt P08913); assay type: functional, cell-based
# T4 sequence (P08913 whole entry): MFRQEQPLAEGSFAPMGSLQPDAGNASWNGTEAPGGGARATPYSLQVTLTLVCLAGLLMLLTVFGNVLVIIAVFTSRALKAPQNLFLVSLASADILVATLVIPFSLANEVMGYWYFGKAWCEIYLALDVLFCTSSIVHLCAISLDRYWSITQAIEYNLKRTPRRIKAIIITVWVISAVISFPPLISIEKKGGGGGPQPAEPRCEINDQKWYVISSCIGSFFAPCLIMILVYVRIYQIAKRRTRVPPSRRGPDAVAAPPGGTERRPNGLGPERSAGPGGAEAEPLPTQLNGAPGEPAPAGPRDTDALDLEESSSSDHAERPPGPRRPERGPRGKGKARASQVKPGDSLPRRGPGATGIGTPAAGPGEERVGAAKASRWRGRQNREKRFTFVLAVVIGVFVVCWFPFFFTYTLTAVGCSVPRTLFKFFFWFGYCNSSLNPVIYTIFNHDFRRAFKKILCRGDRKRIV
# [6] = target: Muscarinic acetylcholine receptor M3 (Homo sapiens, UniProt P20309)
# D(1A) dopamine receptor = D(1A) dopamine receptor (Homo sapiens, UniProt P21728); assay type: functional, cell-based
# [7] = target: T5, 5-hydroxytryptamine receptor 2C (Homo sapiens, UniProt P28335)
# T5 sequence (P28335 whole entry): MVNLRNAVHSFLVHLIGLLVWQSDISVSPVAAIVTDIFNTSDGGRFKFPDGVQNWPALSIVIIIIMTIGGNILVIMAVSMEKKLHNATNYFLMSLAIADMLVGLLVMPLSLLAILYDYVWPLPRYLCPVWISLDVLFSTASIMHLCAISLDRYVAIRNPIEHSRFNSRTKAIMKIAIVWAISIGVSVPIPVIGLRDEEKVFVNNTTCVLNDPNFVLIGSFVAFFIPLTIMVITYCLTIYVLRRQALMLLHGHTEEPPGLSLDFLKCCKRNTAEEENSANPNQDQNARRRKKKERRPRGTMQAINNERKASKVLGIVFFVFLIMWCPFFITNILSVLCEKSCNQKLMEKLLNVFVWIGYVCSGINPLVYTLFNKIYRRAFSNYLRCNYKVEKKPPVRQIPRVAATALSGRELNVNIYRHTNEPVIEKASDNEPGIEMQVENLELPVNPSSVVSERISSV
# Thromboxane A2 receptor = target: T6, Thromboxane A2 receptor (Homo sapiens, UniProt P21731)
# T6 sequence (P21731 whole entry): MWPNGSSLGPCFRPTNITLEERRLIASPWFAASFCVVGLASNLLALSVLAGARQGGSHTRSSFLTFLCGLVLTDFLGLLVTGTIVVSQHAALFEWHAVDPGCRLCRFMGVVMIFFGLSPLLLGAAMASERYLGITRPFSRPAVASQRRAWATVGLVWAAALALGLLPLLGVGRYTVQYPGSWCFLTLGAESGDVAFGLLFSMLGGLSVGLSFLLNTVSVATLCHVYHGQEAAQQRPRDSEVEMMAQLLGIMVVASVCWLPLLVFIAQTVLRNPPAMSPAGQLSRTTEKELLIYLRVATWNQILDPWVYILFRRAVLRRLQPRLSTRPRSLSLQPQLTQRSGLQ
# [8] = target: Glutamate receptor ionotropic, NMDA 1 (Rattus norvegicus, UniProt P35439)
# Further: assay procedure not described here.
# Chain of Delta-type opioid receptor (P41143 whole entry): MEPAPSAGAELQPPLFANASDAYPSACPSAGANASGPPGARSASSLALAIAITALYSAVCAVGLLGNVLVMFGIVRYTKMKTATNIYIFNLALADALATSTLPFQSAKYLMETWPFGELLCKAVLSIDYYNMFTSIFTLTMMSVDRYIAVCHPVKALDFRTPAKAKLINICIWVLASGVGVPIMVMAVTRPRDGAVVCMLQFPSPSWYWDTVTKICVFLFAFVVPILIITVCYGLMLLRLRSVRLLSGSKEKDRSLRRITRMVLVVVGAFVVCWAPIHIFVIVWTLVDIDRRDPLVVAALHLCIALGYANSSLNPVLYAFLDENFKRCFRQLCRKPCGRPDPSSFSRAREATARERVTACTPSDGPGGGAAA
# Chain of Melanocortin receptor 3 (P41968 whole entry): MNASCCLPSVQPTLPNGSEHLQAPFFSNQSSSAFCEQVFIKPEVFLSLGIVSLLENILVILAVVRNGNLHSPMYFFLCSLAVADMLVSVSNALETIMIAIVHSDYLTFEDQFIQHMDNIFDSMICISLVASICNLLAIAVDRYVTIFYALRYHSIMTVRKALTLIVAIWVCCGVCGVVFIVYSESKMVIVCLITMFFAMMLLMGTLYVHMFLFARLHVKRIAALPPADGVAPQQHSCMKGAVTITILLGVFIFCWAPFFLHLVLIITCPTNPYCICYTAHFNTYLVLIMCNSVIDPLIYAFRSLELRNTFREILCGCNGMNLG
# Chain of 5-hydroxytryptamine receptor 2B (P41595 whole entry): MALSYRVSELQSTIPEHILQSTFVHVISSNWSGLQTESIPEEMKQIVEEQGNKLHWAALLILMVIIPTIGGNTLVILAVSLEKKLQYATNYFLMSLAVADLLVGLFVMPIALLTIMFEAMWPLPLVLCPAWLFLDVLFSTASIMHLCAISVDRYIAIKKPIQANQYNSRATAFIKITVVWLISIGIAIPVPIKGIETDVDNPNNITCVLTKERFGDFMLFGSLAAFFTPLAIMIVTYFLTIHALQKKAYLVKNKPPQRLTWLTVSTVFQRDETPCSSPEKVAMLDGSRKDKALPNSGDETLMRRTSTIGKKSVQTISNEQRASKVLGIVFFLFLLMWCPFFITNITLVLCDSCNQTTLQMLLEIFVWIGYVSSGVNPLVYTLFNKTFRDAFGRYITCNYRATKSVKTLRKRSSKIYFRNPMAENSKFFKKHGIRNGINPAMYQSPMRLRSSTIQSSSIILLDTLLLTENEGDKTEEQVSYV
# Chain of D(1A) dopamine receptor (P21728 whole entry): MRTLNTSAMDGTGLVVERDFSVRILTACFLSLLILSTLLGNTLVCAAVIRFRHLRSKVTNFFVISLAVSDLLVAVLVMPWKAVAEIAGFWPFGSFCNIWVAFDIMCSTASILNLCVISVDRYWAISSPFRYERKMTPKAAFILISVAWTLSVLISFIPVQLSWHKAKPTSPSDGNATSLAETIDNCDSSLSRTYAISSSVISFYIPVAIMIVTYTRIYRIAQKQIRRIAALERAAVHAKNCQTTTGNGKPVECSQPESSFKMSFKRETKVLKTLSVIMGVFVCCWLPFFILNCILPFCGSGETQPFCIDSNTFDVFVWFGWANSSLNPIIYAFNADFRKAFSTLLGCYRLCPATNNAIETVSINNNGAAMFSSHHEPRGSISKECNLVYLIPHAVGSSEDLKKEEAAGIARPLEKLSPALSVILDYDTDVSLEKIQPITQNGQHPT
# Chain of Muscarinic acetylcholine receptor M3 (P20309 whole entry): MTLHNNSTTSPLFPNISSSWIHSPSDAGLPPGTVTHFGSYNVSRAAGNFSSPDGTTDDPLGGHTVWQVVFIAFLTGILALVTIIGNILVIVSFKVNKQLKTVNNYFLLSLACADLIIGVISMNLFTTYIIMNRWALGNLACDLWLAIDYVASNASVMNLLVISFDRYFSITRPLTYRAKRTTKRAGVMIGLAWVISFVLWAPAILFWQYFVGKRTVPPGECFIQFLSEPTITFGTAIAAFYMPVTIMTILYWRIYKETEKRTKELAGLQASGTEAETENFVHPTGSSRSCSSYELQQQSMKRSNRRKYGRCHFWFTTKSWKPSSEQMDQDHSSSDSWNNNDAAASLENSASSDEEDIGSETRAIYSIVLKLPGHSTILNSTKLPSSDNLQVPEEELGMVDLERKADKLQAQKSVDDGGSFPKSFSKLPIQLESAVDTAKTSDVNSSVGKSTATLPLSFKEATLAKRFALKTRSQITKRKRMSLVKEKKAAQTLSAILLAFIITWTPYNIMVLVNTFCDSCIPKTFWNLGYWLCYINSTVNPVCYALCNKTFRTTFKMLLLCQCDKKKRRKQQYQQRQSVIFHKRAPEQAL
Structure (SMILES),AC50 [1],AC50 (Melanocortin receptor 3),AC50 [2],AC50 (Endothelin-1 receptor),AC50 [3],AC50 [4],AC50 [5],AC50 [6],AC50 (D(1A) dopamine receptor),AC50 [7],AC50 (Thromboxane A2 receptor),AC50 [8]
CCN1CCCC1CNC(=O)c1cc(S(=O)(=O)CC)ccc1OC (stereo not drawn) [SULTOPRIDE],1.3 µM,> 30 µM,> 30 µM,> 30 µM,> 30 µM,> 30 µM,> 30 µM,> 30 µM,> 30 µM,> 30 µM,> 30 µM,> 30 µM
Cn1c(=O)c2c(ncn2CCOC(=O)C(C)(C)Oc2ccc(Cl)cc2)n(C)c1=O [THEOFIBRATE],> 30 µM,> 30 µM,> 30 µM,> 30 µM,> 30 µM,> 30 µM,> 30 µM,> 30 µM,> 30 µM,> 30 µM,> 30 µM,> 30 µM
CC(C)(C)NCC(O)c1ccccc1Cl (stereo not drawn) [TULOBUTEROL],> 30 µM,> 30 µM,> 30 µM,> 30 µM,> 30 µM,> 30 µM,> 30 µM,> 30 µM,> 30 µM,> 30 µM,> 30 µM,> 30 µM
CC(C(=O)O)c1ccc2c(c1)CC(=O)c1ccccc1S2 (stereo not drawn) [ZALTOPROFEN],> 30 µM,> 30 µM,> 30 µM,> 30 µM,> 30 µM,> 30 µM,> 30 µM,> 30 µM,> 30 µM,> 30 µM,> 30 µM,> 30 µM
